The text below walks through data of patent US10538544B1, “Method for administering cisplatin and a thiocyanate complex to treat ovarian cancer” (priority 2018, dated 2020).

A word on the IC50: it is the concentration at which inhibition is half-maximal.

For series [1], the system named is A2780 S (cisplatin sensitive) human ovarian tumor cell line. Briefly: MTT assay, cell viability, 72 h, A2780 S. In kind it is cell-based. The following applies: read-out: IC50 Values against A2780 S. How it is done:
(§1) MTT assay. The IC50 values in 72 hours of the compounds on human ovarian tumor cell lines, A2780 S (cisplatin sensitive) and A2780 CR (cisplatin resistance) were identified by cell viability test. 6000 cells per well in 100 μL cell media were seeded. After 24 h, all supernatant was aspirated out. Then 200 μL of drug solution is added to the first column of each well, and 100 μL of medium were added into the remaining well. The 100 μL of drug solution from first column was taken and mix well with the next column by repeated pipetting using a multichannel pipettor. The last two columns were leaved without drug addition to serve as blank control. After 72 h, supernatants in each well was replaced with 100 μL of 10% MTT (3-(4,5-dimethylthiazol-2-yl)-2,5-diphenyltetrazolium bromide) tetrazolium reduction assay solution, and incubated for at least 45 minutes at 37° C. After aspirating incubated solution, 100 μL of DMSO was added into each well to dissolve formazan crystals. The plates were then read using plate reader at 570 nm. The in vitro cytotoxicity of three platinum complexes (1), (2) and (3) was evaluated against a pair human ovarian tumor cell lines, A2780 S (cisplatin sensitive) and A2780 CR (cisplatin resistant). For comparison, anticancer activity of cisplatin was also evaluated under the same conditions. The IC50 values and cell viability curves are shown in Table 3 and FIG. 5 respectively.
For orientation: Formazan colour is commonly taken as a measure of viable cells.

In series [2] the test system is A2780 CR (cisplatin resistant) human ovarian tumor cell line. As to the kind of experiment: MTT assay, cell viability, 72 h, A2780 CR. The conditions noted are these: for IC50: MTT, 72 h, A2780 CR (cisplatin resistant), read-out: IC50 Values against A2780 CR; for Resistance factor: calculated from IC50 in A2780 CR and A2780 S. In kind it is cell-based. As for the experimental part:
as §1

The conditions of series [3]: background, literature; cited from earlier work.
For series [4] the following is noted: background, literature; cited from earlier work. The source holds these as a separate data set.

`CC(C)CN(CC(C)C)C(=S)[S-].CC(C)CN(CC(C)C)C(=S)[S-].[Pt+2]` [(1), [Pt(S2CN^i Bu2)2]]: the IC50 in series [1] came to 5 ± 0.097 µM. For the same molecule, the “cytotoxicity compared with cisplatin against A2780 CR cells” value in series [2] (A2780 CR cells, in words) is listed as “better cytotoxicity than cisplatin”. Further, in series [2], the IC50 was found to be 5.91 ± 0.92 µM and the Resistance factor is reported as 1.18.

For `CC(C)N(C(=S)[S-])C(C)C.CC(C)N(C(=S)[S-])C(C)C.[Pt+2]` [(3), [Pt(S2CN^i Pr2)2]], in series [1], the IC50 came out at 8.92 ± 0.58 µM. Also, in series [2], the concentration for half-maximal inhibition (IC50) amounted to 8.83 ± 0.83 µM and the Resistance factor is recorded as 1.00.

Turning to `N.N.[Cl][Pt][Cl]` [Cisplatin], the IC50 in series [1] amounted to 0.33 ± 0.011 µM. In addition, in series [2], the IC50 was determined as 6.37 ± 1 µM and the Resistance factor was 19.20.

For the molecule [Pt(ESDT)(Py)Cl], in series [3], the “effectiveness as antiproliferative agent compared with cisplatin” value is “more effective as antiproliferative agent than cisplatin”. For the same molecule, the “renal toxicity compared with cisplatin” value in series [4] was “much lower renal toxicity”.

On to [Pt(S2CNBn2)2].py [(2)], for which the IC50 in series [1] was 16.4 ± 1.35 µM. For the same molecule, in series [2], the IC50 was 15 ± 1.21 µM and the Resistance factor is given as 0.92.
